Test [1] has as its system time to descend from a pole. The experiment in a line: Pole descent test in MC4100 mice treated with compound vs control chow (FIG. 7). It is filed as in vivo, mouse. The settings on record: 18-20 weeks of age; vs MC-4100 control chow group.
In test [2] the target is T1, E. coli CsgA (Escherichia coli, UniProt P28307).
T1 construct: made in house; host or cells: E. coli NEB 3016 slyD::kan, pET11d
The experiment in a line: In vitro ThioflavinT assay of CsgA aggregation (CsgA ThT Assay). It is filed as biochemical. The settings on record: for remaining activity at 25 µM: compound 25 μM; for remaining activity at 100 µM: compound 100 μM. A digest of the protocol: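 Purified C-terminal His-tagged CsgA, monomerised by desalting and 30-kDa filtration, at 2-20 μM with 20-40 μM ThT in 50 mM potassium phosphate pH 7.3, 1% DMSO, compounds 3.125-200 uM; room temperature, fluorescence (ex 438/em 495 nm) read every 15 min. Background-subtracted signal expressed as percent inhibition versus vehicle at 6-6.5 or 8-9 h, or as percent control AUC.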

Test [3] deals with fecal water content. The test is described as follows: Fecal water content in MC4100 mice treated with compound vs control chow (FIG. 6). It is filed as in vivo, mouse. The settings on record: 12-14 weeks of age; vs MC4100-control chow group.
For test [4], the system named is number of fecal pellets. The experiment in a line: Fecal pellet output in MC4100 mice treated with compound vs control chow (FIG. 5). In kind it is in vivo, mouse. The settings on record: 12-14 weeks of age; compared to MC4100-control chow group; statistical difference was not reached.
The test system of test [5] is csgA expression in E. coli MC4100. The experiment in a line: csgA expression relative to housekeeping genes recA and cysG in E. coli MC4100 monocolonized mice (FIGS. 8A-D). In kind it is in vivo.
The subject of test [6] is CsgA expression in E. coli MC4100. The experiment in a line: Monocolonized Mouse Model: csgA expression in fecal pellets by qRT-PCR. As to conditions: 30 mg/kg, day five of treatment, relative to mice treated with vehicle alone (FIGS. 4A-B). In general terms: Quantitative PCR measures a nucleic acid by following its amplification.
Where [7] appears, read: read-out: CsgA ThT Assay (2 μM CsgA) % Control Bmax 25 μM, activity range, class symbol, CsgA 2 μM, white plates.
Setting [8] is: read-out: CsgA ThT Assay (2 μM CsgA) % Control Bmax 25 μM, mean Bmax as percentage of DMSO control, CsgA 2 μM, white plates.
Where [9] appears, read: read-out: CsgA ThT Assay (2 μM CsgA) % Control Bmax 100 μM, activity range, class symbol, CsgA 2 μM, white plates.
Setting [10] is: read-out: CsgA ThT Assay (2 μM CsgA) % Control Bmax 100 μM, mean Bmax as percentage of DMSO control, CsgA 2 μM, white plates.
Setting [11] is: read-out: CsgA ThT Assay (10 μM CsgA) % Control AUC at 1005 minutes, 25 μM (activity range), CsgA 10 μM, black plates, 1005 minutes, class symbol.
Where [12] appears, read: read-out: CsgA ThT Assay (10 μM CsgA) % Control AUC at 1005 minutes, 25 μM, mean AUC as % of DMSO control, CsgA 10 μM, black plates, 1005 minutes.
Where [13] appears, read: read-out: CsgA ThT Assay (10 μM CsgA) % Control AUC at 1005 minutes, 100 μM (activity range), CsgA 10 μM, black plates, 1005 minutes, class symbol.
Setting [14] is: read-out: CsgA ThT Assay (10 μM CsgA) % Control AUC at 1005 minutes, 100 μM, mean AUC as % of DMSO control, CsgA 10 μM, black plates, 1005 minutes.

The structures appear in SMILES notation. Where two headings read alike, the source gives them in different places.

The results in this text go back to US20230131899A1, “INHIBITORS OF MICROBIALLY INDUCED AMYLOID” (Axial Therapeutics, Inc., priority 2020, published 2023).

T1 sequence (P28307 23-151): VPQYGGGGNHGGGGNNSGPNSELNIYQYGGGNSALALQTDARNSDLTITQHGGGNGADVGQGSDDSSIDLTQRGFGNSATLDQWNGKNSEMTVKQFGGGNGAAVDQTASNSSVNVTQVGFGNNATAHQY

For `O=C(O)[C@@H]1CN(Cc2ccccc2)c2c(-c3cccc(C(F)(F)F)c3)c(Cc3cccc4ccccc34)c(Cl)c(=O)n21` (single isomer, unassigned) [Compound 004a], the “time to descend from a pole into a home cage” value in test [1] is recorded as “trend towards improvement of the phenotype”. The remaining activity at 25 µM in test [2] (setting [7]) was greater than 60%; in test [2] (setting [8]), 64%. Further, the remaining activity at 100 µM in test [2] (setting [9]) is 11 to 31%; in test [2] (setting [10]) it was 24%. In addition, in test [3], the fecal water content result is recorded as “restored a constipation phenotype”. In addition, the “number of fecal pellets a mouse produced at 15 min interval” value in test [4] is “overall increase in number of fecal pellets”. For the same compound, the “csgA expression relative to housekeeping genes recA and cysG” value in test [5] (12-14 weeks of age) is “reduction of csgA expression”; in test [5] (14-16 weeks of age) it was “repeated and observed again”.
With `CN1CC(C(=O)O)n2c(c(-c3cccc(C(F)(F)F)c3)c(Cc3cccc4ccccc34)c(NC3CCCC3)c2=O)S1(=O)=O` (centres unmarked) [Compound 070, 7-(cyclopentylamino)-2-methyl-8-(naphthalen-1-ylmethyl)-6-oxo-9-(3-(trifluoromethyl)phenyl)-3,4-dihydro-2H,6H-pyrido[1,2-e][1,2,5]thiadiazine-4-carboxylic acid 1,1-dioxide], the remaining activity at 25 µM in test [2] (setting [11]) was 11 to 31%; in test [2] (setting [12]) it was 17%. Besides, the remaining activity at 100 µM in test [2] (setting [13]) was 11 to 31%; in test [2] (setting [14]), 29%. For the same compound, the “csgA expression in E. coli MC4100 monocolonized mice” value in test [6] is reported as “reduction of csgA expression”.
As for `CCNC(=O)c1c(Cc2cccc3ccccc23)c(-c2cccc(C(F)(F)F)c2)c2n(c1=O)C(C(=O)O)CN(C)S2(=O)=O` (centres unmarked) [Compound 156, 7-(ethylcarbamoyl)-2-methyl-8-(naphthalen-1-ylmethyl)-6-oxo-9-(3-(trifluoromethyl)phenyl)-3,4-dihydro-2H,6H-pyrido[1,2-e][1,2,5] thiadiazine-4-carboxylic acid 1,1-dioxide], the remaining activity at 25 µM in test [2] (setting [7]) was greater than 60%; in test [2] (setting [8]), 80%. Moreover, the remaining activity at 100 µM in test [2] (setting [9]) is greater than 60%; in test [2] (setting [10]), 90%.
Turning to `Cn1c(=O)c2c(ncn2CCCCCCCN2CC(C(=O)O)n3c(c(-c4cccc(C(F)(F)F)c4)c(Cc4cccc5ccccc45)cc3=O)S2(=O)=O)n(C)c1=O` (centres unmarked) [Compound 036], the remaining activity at 25 µM in test [2] (setting [11]) is greater than 60%; in test [2] (setting [12]), 65%.
Consider `CNC(=O)CCCN1CC(C(=O)O)n2c(c(-c3cccc(C(F)(F)F)c3)c(Cc3cccc4ccccc34)cc2=O)S1(=O)=O` (centres unmarked) [Compound 037, 2-(4-(methylamino)-4-oxobutyl)-8-(naphthalen-1-ylmethyl)-6-oxo-9-(3-(trifluoromethyl)phenyl)-3,4-dihydro-2H,6H-pyrido[1,2-e][1,2,5]thiadiazine-4-carboxylic acid 1,1-dioxide], for which the remaining activity at 25 µM is greater than 60% in test [2] (setting [11]) and 71% in test [2] (setting [12]). Besides, the figures for the remaining activity at 100 µM in test [2] (setting [13]) and in test [2] (setting [14]) were 31 to 60% and 53%, respectively.
For `O=C(O)C1CN(CCCCCO)c2c(-c3cccc(C(F)(F)F)c3)c(Cc3cccc4ccccc34)c(Cl)c(=O)n21` (centres unmarked) [Compound 199, 6-chloro-1-(5-hydroxypentyl)-7-(naphthalen-1-ylmethyl)-5-oxo-8-(3-(trifluoromethyl)phenyl)-1,2,3,5-tetrahydroimidazo[1,2-a]pyridine-3-carboxylic acid], the remaining activity at 25 µM in test [2] (setting [7]) is greater than 60%; in test [2] (setting [8]) it was 83%. Further, the remaining activity at 100 µM in test [2] (setting [9]) is greater than 60%; in test [2] (setting [10]), 99%.
With `O=C(O)C1CSc2c(-c3cccc(C(F)(F)F)c3)c(Cc3cccc4ccccc34)c(CO)c(=O)n21` (centres unmarked) [Compound 057, 6-(hydroxymethyl)-7-(naphthalen-1-ylmethyl)-5-oxo-8-(3-(trifluoromethyl)phenyl)-2,3-dihydro-5H-thiazolo[3,2-a]pyridine-3-carboxylic acid], the remaining activity at 25 µM in test [2] (setting [11]) was 31 to 60%; in test [2] (setting [12]) it was 59%. Moreover, the remaining activity at 100 µM in test [2] (setting [13]) was 11 to 31%; in test [2] (setting [14]), 24%.
